Assay results from US20210323995A1, “ISOLITHOCHOLIC ACID OR ISOALLOLITHOCHOLIC ACID AND DEUTERATED DERIVATIVES THEREOF FOR PREVENTING AND TREATING CLOSTRIDIUM DIFFICILE-ASSOCIATED DISEASES” (PHENEX PHARMACEUTICALS AG, priority 2018, published 2021).

Columns and labels:
[1] = test system: C. diff. strain VPI 10463 (ATCC-43255) infection; assay: Murine model of Clostridium difficile-associated disease: acute model; assay type: in vivo, C57BL6 female mice
Protocol: Efficacy Evaluation in a Murine Model of Clostridium difficile-Associated Disease: Acute Model
The efficacy of compounds in suppressing C. diff infection was assessed in C57BL6 female mice. Mice were made vulnerable to C. diff. infection by administration of a cocktail of antibiotics (1% glucose, kanamycin (0.5 mg/mL), gentamicin (44 μg/mL), colistin (1062.5 U/mL), metronidazole (269 μg/mL), ciprofloxacin (156 μg/mL), ampicillin (100 μg/mL) and vancomycin (56 μg/mL)) in drinking water for a period of 9 days. 3 days prior to C. diff. infection, mice received a single dose of clindamycin (10 mg/kg) in a volume of 0.5 mL by oral gavage. After this antibiotic pre-treatment, mice received a challenge of approximately 4.5 log 10 viable spores of strain VPI 10463 (ATCC-43255) administered by oral gavage. Test compounds (bile acid) and placebo were administered in the chow or via oral gavage bid from day −2 through day 4 or 10 or 11. Gavage medium was aqueous, PBS-buffered 0.5% hydroxypropyl methylcellulose (HPMC) suspension. Efficacy of test articles was assessed by enumeration of survival of test animals over 12/15 days following C. diff, challenge and by comparison of mortality, disease severity scores and assessment of body weight against placebo treatment.
Results studies 1, 2 and 3 (using compound Example 1, dosed with 100 mg/kg daily dose via food or via gavage bid): […]

[2] = ALT plasma concentration of mice after 5 days administration; assay type: in vivo; conditions: 500 mg/kg for 5 days, mice (FIG. 1a, 1b); result in words
[3] = biological target: T1, vitamin D receptor (VDR; NR1I1) (Homo sapiens, UniProt P11473); assay: One-hybrid reporter assay for the vitamin D receptor; assay type: cell-based; conditions: result in words
T1 construct: expressed in transfected cells; host or cells: HEK293
T1 sequence (P11473 88-427): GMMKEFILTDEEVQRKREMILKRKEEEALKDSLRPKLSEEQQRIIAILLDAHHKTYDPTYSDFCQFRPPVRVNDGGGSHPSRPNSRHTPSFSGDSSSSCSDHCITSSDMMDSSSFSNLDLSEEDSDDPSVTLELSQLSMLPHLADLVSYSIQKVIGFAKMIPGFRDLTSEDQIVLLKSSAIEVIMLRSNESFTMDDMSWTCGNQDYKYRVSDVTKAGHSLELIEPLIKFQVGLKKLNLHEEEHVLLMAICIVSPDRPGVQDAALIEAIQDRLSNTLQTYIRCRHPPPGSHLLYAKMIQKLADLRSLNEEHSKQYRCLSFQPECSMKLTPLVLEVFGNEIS
Protocol: The vitamin D receptor (VDR; NR1I1) reporter assay was performed by transient co-transfection of HEK293 cells with pCMV-BD (Stratagene #211342) containing the GAL4 DNA-binding domain fused with the ligand binding domain of VDR (Genbank accession no. NP_000378, aa 88-427), pFR-Luc reporter and pRL-CMV reporter (Promega #E2261) using PEI solution (Sigma Aldrich cat #40872-7) in a 96-well plate. Cells were incubated for 4-6 hours, and then cultured in MEM supplemented with 8.7% FCS, Glutamax, NEAA, sodium pyruvate and Pen/Strep in the presence of test compounds for 16-20 hours. Cells were incubated for 4 to 6 hours in 30 μL/well transfection mix in OPTIMEM and then cultured for further 16 to 20 hours after addition of 120 μL MEM supplemented with 8.7% FCS, Glutamax, NEAA, sodium pyruvate and Pen/Strep in the presence of test compounds. Medium was removed and cells were lysed with 1× Passive Lysis Buffer (Promega). Firefly luciferase buffer was then added and firefly luciferase luminescence was read on BMG LUMIstar OMEGA luminescence plate reader. One second later, renilla luciferase buffer was added and renilla luciferase luminescence was read to evaluate cell viability and to be able to normalize for well to well differences in transfection efficiency.

[4] = test system: C. diff. strain VPI 10463 (ATCC-43255) infection; assay: Recurrence model mouse of C. diff. infection; assay type: in vivo, C57BL/6 female mice; conditions: for Survived / Total Deaths: Day 5 to Day 11, n 10
Protocol: The efficacy of compounds in suppressing recurrent C. diff. infection was assessed in C57BL/6 female mice. Mice were made vulnerable to C. diff. infection by administration of a cocktail of antibiotics (1% glucose, kanamycin (0.5 mg/mL), gentamicin (44 μg/mL), colistin (1062.5 U/mL), metronidazole (269 μg/mL), ciprofloxacin (156 μg/mL), ampicillin (100 μg/mL) and vancomycin (56 μg/mL)) in drinking water for a period of 9 days. 3 days prior to C. diff. infection, mice received a single dose of clindamycin (10 mg/kg) in a volume of 0.5 mL by oral gavage. After this antibiotic pre-treatment, mice received a challenge of approximately 4.5 log 10 viable spores of strain VPI 10463 (ATCC-43255) administered by oral gavage (day 0). After that mice received 50 mg/kg vancomycin from day 0 until day 4. Test articles (bile acid) and placebo were administered via oral gavage bid from day 5 through day 11. Efficacy of test articles was assessed by enumeration of survival of test animals over 15 days following C. diff, challenge and by comparison of mortality, disease severity scores and assessment of body weight against placebo treatment.

[5] = test system: C. diff. strain BI1 infection; assay: Recurrence model hamster of C. diff. infection; assay type: in vivo, male Syrian hamster; conditions: for survivors: repeated experiment (FIG. 5), 100% of vehicle animals died within 13 days
Protocol: The efficacy of compounds in suppressing recurrent C. diff infection was assessed in male Syrian hamster. Hamster were made vulnerable to C. diff. infection by administration 1 day prior to C. diff, infection of a single dose of clindamycin (30 mg/kg) by oral gavage. After this antibiotic pre-treatment, mice received a challenge of approximately 1560 viable spores of strain BI1 administered by oral gavage (day 0). After that hamster received 10 mg/kg vancomycin from day 0 until day 5. Test articles (bile acid) and placebo were administered via oral gavage bid from day 6 through day 15. Efficacy of test articles was assessed by enumeration of survival of test animals over 20 days following C. diff. challenge and by comparison of mortality, disease severity scores and assessment of body weight against placebo treatment.

[6] = Study 1, 0.1% in chow, Day −2 to Day 10
[7] = Study 1, 0.1% in chow, Day −2 to Day 10, n 10
[8] = Study 2, 0.1% in chow, Day −2 to Day 10
[9] = Study 2, 0.1% in chow, Day −2 to Day 10, n 10
[10] = Study 3, 0.1% in chow, Day −2 to Day 4
[11] = Study 3, 0.1% in chow, Day −2 to Day 4, n 10
[12] = Study 3, 0.1% in chow, Day −2 to Day 10
[13] = Study 3, as gavage, Day −2 to Day 4
[14] = Study 3, as gavage, Day −2 to Day 4, n 10
[15] = Study 3, as gavage, Day −2 to Day 10
[16] = Study 2 (so in the source), 0.1% in chow, Day −2 to Day 10
[17] = Study 2, as gavage, Day 5 to Day 11

In the case of C[C@H](CCC(=O)O)[C@H]1CC[C@H]2[C@@H]3CC[C@@H]4C[C@@H](O)CC[C@]4(C)[C@H]3CC[C@]12C [Example 1, Isolithocholic Acid], the “% Death” value [1, 6] is reported as 0%, the “% mouse days with total clinical score >0” value [1, 6] is reported as 30% and the “% mouse days with total clinical score >2” value [1, 6] is reported as 0%. For the same compound, the “Body weight day 12” value [1, 6] was 19.0, the Survived [1, 7] was 10 and the “Total Deaths” value [1, 7] was 0. The “% Death” value [1, 8] was 0%, the “% mouse days with total clinical score >0” value [1, 8] was 65% and the “% mouse days with total clinical score >2” value [1, 8] was 0%. For the same compound, the “Body weight day 12” value [1, 8] was 20.0, the Survived [1, 9] was 10 and the “Total Deaths” value [1, 9] was 0. For the same compound, the “% Death” value [1, 10] was 20%, the “Body weight day 12” value [1, 10] was 18.1 and the Survived [1, 11] was 8. For the same compound, the “Total Deaths” value [1, 11] was 2, the “% mouse days with total clinical score >0” value [1, 12] was 72% and the “% mouse days with total clinical score >2” value [1, 12] was 15%. The “% Death” value [1, 13] was 0%, the Body weight day 12 [1, 13] was 15.5 g and the Survived [1, 14] was 10. The “Total Deaths” value [1, 14] was 0, the “% mouse days with total clinical score >0” value [1, 15] was 30% and the “% mouse days with total clinical score >2” value [1, 15] was 2%. The “animals in the treatment groups survived” value ([1]; first study (vehicle group 40% died)) was 100%, the “animals in the treatment groups survived” value ([1]; second study (vehicle group 30% died)) was 100% and the “animals in the treatment groups survived” value ([1]; third study (vehicle group 80% died)) was 80%. For the same compound, the “ALT-elevation (ALT plasma concentration)” value [2] was “less pronounced”, the “Vitamin D agonism” value [3] was “devoid of this Vitamin D agonism” and the “survival of the animals” value ([4]; 100 mg/kg, comparison Example 3 against Example 1 (FIG. 3)) was 30%. The “efficacy (surviving rate), head-to-head comparison of iso-LCA and LCA” value ([4]; FIG. 2, result in words) was “higher surviving rate”, the “% Death” value ([4]; Study 1, 0.1% in chow, Day 5 to Day 11) was 0% and the Survived ([4]; Study 1, 0.1% in chow) was 10. The “Total Deaths” value ([4]; Study 1, 0.1% in chow) was 0, the “Body weight day 12” value [4, 6] was 18.4 and the “% mouse days with total clinical score >0” value [4, 16] was 30%. The “% mouse days with total clinical score >2” value [4, 16] was 1%, the “% Death” value [4, 17] was 0% and the “% mouse days with total clinical score >0” value [4, 17] was 56%. The “% mouse days with total clinical score >2” value [4, 17] was 0%, the Body weight day 12 [4, 17] was 16.9 g and the Survived ([4]; Study 2, as gavage) was 10. For the same compound, the “Total Deaths” value ([4]; Study 2, as gavage) was 0, the “animals in the treatment groups died” value ([4]; vehicle group 70 to 80% died, result in words) was “none” and the survivors ([5]; 30 mg/kg) was 20%. For the same compound, the survivors ([5]; 100 mg/kg) was 40%, the animals protected ([5]; dose-dependent manner (FIG. 5)) was 20-40% and the “animals in the treatment group died” value ([5]; first experiment (FIG. 4), vehicle group 20% died, result in words) was “none”. The “spores in caecum and colon of surviving animals” value ([5]; result in words) was “removed all spores from caecum and colon”.
